Test results: ChEMBL document CHEMBL5120971, “Network Pharmacology Research and Dual-omic Analyses Reveal the Molecular Mechanism of Natural Product Nodosin Inhibiting Muscle-Invasive Bladder Cancer in Vitro and in Vivo” (J Nat Prod, 2022)
Activity calls are given as the source filed them. The calls are words filed in the database; no cut-off is given here.

What was measured:
[1] = test system: T-24; test: Cytotoxicity against human T24 cells assessed as reduction in cell growth measured after 24 hrs by live/dead staining based fluorescence assay; assay type: functional; conditions: dose 4-10 µM, DDE = dose-dependent effect
[2] = test system: UMUC3; test: Cytotoxicity against human UMUC3 cells assessed as reduction in cell growth by CCK8 assay; assay type: functional, cell-based
[3] = test system: SW780; test: Cytotoxicity against human SW780 cells assessed as reduction in cell growth by CCK8 assay; assay type: functional, cell-based
[4] = test system: T-24; test: Cytotoxicity against human T24 cells assessed as reduction in cell growth at 4 uM by CCK8 assay; assay type: functional, cell-based; conditions: time 24-72 hrs, TDE = time-dependent effect
[5] = test system: UMUC3; test: Cytotoxicity against human UMUC3 cells assessed as reduction in cell growth at 4 uM by CCK8 assay; assay type: functional, cell-based; conditions: time 24-72 hrs, TDE = time-dependent effect
[6] = test system: T-24; test: Induction of morphological changes in human T24 cells assessed as reduction in cell extension at 4 to 12 uM measured after 48 hrs by microscopy; assay type: functional, cell-based; conditions: dose 4-12 µM
[7] = test system: T-24; test: Inhibition of colony formation in human T24 cells at 1 to 12 uM measured after 12 days by crystal violet staining based microscopy; assay type: functional, cell-based; conditions: dose 1-12 µM, time 12.0 day
[8] = test system: T-24; test: Effect on CLSPN expression in human T24 cells at 6 uM measured after 24 to 30 hrs by proteomic analysis; assay type: functional, cell-based; conditions: time 24-30 hrs
[9] = test system: T-24; test: Effect on E2F6 expression in human T24 cells at 6 uM measured after 24 to 30 hrs by proteomic analysis; assay type: functional, cell-based; conditions: time 24-30 hrs
[10] = test system: T-24; test: Effect on PDCD2L expression in human T24 cells at 6 uM measured after 24 to 30 hrs by proteomic analysis; assay type: functional, cell-based; conditions: time 24-30 hrs
[11] = test system: T-24; test: Effect on NEK6 expression in human T24 cells at 6 uM measured after 24 to 30 hrs by proteomic analysis; assay type: functional, cell-based; conditions: time 24-30 hrs
[12] = test system: T-24; test: Effect on DDB1 expression in human T24 cells at 6 uM measured after 24 to 30 hrs by proteomic analysis; assay type: functional, cell-based; conditions: time 24-30 hrs
[13] = test system: T-24; test: Effect on NBN expression in human T24 cells at 6 uM measured after 24 to 30 hrs by proteomic analysis; assay type: functional, cell-based; conditions: time 24-30 hrs
[14] = test system: T-24; test: Effect on POLD3 expression in human T24 cells at 6 uM measured after 24 to 30 hrs by proteomic analysis; assay type: functional, cell-based; conditions: time 24-30 hrs
[15] = test system: T-24; test: Effect on RHOB expression in human T24 cells at 6 uM measured after 24 to 30 hrs by proteomic analysis; assay type: functional, cell-based; conditions: time 24-30 hrs
[16] = test system: T-24; test: Inhibition of DNA replication in human T24 cells at 4 to 10 uM measured after 24 hrs by EdU staining based fluorescence assay; assay type: functional, cell-based; conditions: dose 4-10 µM
[17] = test system: T-24; test: Induction of ROS generation in human T24 cells at 4 to 10 uM measured after 6 hrs by H2DCFDA probe based flow cytometry; assay type: functional, cell-based; conditions: dose 4-10 µM
[18] = test system: T-24; test: Induction of apoptosis in human T24 cells assessed as viable cells at 4 uM measured after 48 hrs by Annexin V-FITC/propidium iodide staining based flow cytometry (reference value: 97.49%); assay type: functional; conditions: read-out: Activity
[19] = test system: T-24; test: Induction of apoptosis in human T24 cells assessed as viable cells at 6 uM measured after 48 hrs by Annexin V-FITC/propidium iodide staining based flow cytometry (reference value: 97.49%); assay type: functional; conditions: read-out: Activity
[20] = test system: T-24; test: Up regulation of HMOX1 expression in human T24 cells at 6 uM measured after 24 to 30 hrs by proteomic analysis; assay type: functional, cell-based; conditions: time 24-30 hrs
[21] = test system: T-24; test: Induction of apoptosis in human T24 cells assessed as effect on G0S2 expression at 6 uM measured after 24 to 30 hrs by proteomic analysis; assay type: functional, cell-based; conditions: time 24-30 hrs
[22] = test system: T-24; test: Induction of apoptosis in human T24 cells assessed as effect on ZFP36L1 expression at 6 uM measured after 24 to 30 hrs by proteomic analysis; assay type: functional, cell-based; conditions: time 24-30 hrs
[23] = test system: T-24; test: Induction of apoptosis in human T24 cells assessed as effect on AIFM2 expression at 6 uM measured after 24 to 30 hrs by proteomic analysis; assay type: functional, cell-based; conditions: time 24-30 hrs
[24] = test system: T-24; test: Induction of apoptosis in human T24 cells assessed as effect on RMDN3 expression at 6 uM measured after 24 to 30 hrs by proteomic analysis; assay type: functional, cell-based; conditions: time 24-30 hrs
[25] = test system: T-24; test: Induction of apoptosis in human T24 cells assessed as effect on FAM168A expression at 6 uM measured after 24 to 30 hrs by proteomic analysis; assay type: functional, cell-based; conditions: time 24-30 hrs
[26] = test system: T-24; test: Induction of autophagy in human T24 cells assessed as up regulation of SQSTM1 expression at 6 uM measured after 24 to 30 hrs by proteomic analysis; assay type: functional, cell-based; conditions: time 24-30 hrs
[27] = test system: T-24; test: Induction of autophagy in human T24 cells assessed as effect on SQSTM1 gene expression at 6 uM measured after 12 to 18 hrs by transcriptome analysis; assay type: functional, cell-based; conditions: time 12-18 hrs
[28] = test system: T-24; test: Induction of autophagy in human T24 cells assessed as effect on RAB24 gene expression at 6 uM measured after 12 to 18 hrs by transcriptome analysis; assay type: functional, cell-based; conditions: time 12-18 hrs
[29] = test system: T-24; test: Induction of apoptosis in human T24 cells assessed as up regulation of HMOX1 gene expression at 6 uM measured after 12 to 18 hrs by transcriptome analysis; assay type: functional, cell-based; conditions: time 12-18 hrs
[30] = test system: T-24; test: Induction of autophagy in human T24 cells assessed as up regulation of MAP1LC3B gene expression at 6 uM measured after 12 to 18 hrs by transcriptome analysis; assay type: functional, cell-based; conditions: time 12-18 hrs
[31] = test system: T-24; test: Induction of apoptosis in human T24 cells assessed as up regulation of LC3 expression at 6 to 12 uM measured after 24 hrs by immunofluorescence analysis; assay type: functional, cell-based; conditions: dose 6-12 µM
[32] = test system: T-24; test: Induction of mitochondrial membrane disruption in human T24 cells at 4 to 8 uM measured after 48 hrs by transmission electron microscopy; assay type: cell-based; conditions: dose 4-8 µM
[33] = test system: T-24; test: Induction of morphological changes in human T24 cells assessed as appearance of apoptotic bodies at 4 to 8 uM measured after 48 hrs by transmission electron microscopy; assay type: functional, cell-based; conditions: dose 4-8 µM
[34] = test system: T-24; test: Up regulation of AIFM2 gene expression in human T24 cells at 6 uM measured after 12 to 18 hrs by transcriptome analysis; assay type: functional, cell-based; conditions: time 12-18 hrs
[35] = test system: T-24; test: Up regulation of FTL expression in human T24 cells at 6 uM measured after 24 to 30 hrs by proteomic analysis; assay type: functional, cell-based; conditions: time 24-30 hrs
[36] = test system: T-24; test: Up regulation of SLC7A11 expression in human T24 cells at 6 uM measured after 24 to 30 hrs by proteomic analysis; assay type: functional, cell-based; conditions: time 24-30 hrs
[37] = test system: T-24; test: Antimigratory activity against human T24 cells assessed as down regulation of LIMA1 expression at 6 uM measured after 24 to 30 hrs by proteomic analysis; assay type: functional, cell-based; conditions: time 24-30 hrs
[38] = test system: T-24; test: Antimigratory activity against human T24 cells assessed as down regulation of PALLD expression at 6 uM measured after 24 to 30 hrs by proteomic analysis; assay type: functional, cell-based; conditions: time 24-30 hrs
[39] = test system: T-24; test: Antimigratory activity against human T24 cells assessed as reduction in F-actin expression at 8 to 20 uM measured after 24 hrs by actin-tracker red-594/DAPI staining based fluorescence assay; assay type: functional, cell-based; conditions: dose 8-20 µM
[40] = test system: T-24; test: Antitumor activity against human T24 cells xenografted in BALB/c mouse assessed as reduction in tumor weight at 2 mg/kg, ip administered at 2 days interval; assay type: functional, organism-based
[41] = test system: T-24; test: Antitumor activity against human T24 cells xenografted in BALB/c mouse assessed as increase in HMOX1expression at 2 mg/kg, ip administered at 2 days interval by immunohistochemical analysis; assay type: functional, organism-based

## C=C1C(=O)[C@]23C[C@H]1C[C@@H](O)[C@H]2[C@@]12CO[C@@H](O)[C@@H]1C(C)(C)CC[C@@H]2OC3=O [NODOSIN]
[1]
  Activity: Dde
[2]
  IC50: 3.45 µM
[2]; DDE = dose-dependent effect
  Activity: Dde
[3]
  IC50: 9.99 µM
[3]; DDE = dose-dependent effect
  Activity: Dde
[4]
  Activity: Tde
[5]
  Activity: Tde
[6]
  Activity: Active
[7]
  inhibition: Active
[8]
  Activity: Active
[9]
  Activity: Active
[10]
  Activity: Active
[11]
  Activity: Active
[12]
  Activity: Active
[13]
  Activity: Active
[14]
  Activity: Active
[15]
  Activity: Active
[16]
  inhibition: Active
[17]
  Activity: Active
[18]
  viability at 4 µM: 96.1%
[19]
  viability at 6 µM: 78.8%
[20]
  Activity: Active
[21]
  Activity: Active
[22]
  Activity: Active
[23]
  Activity: Active
[24]
  Activity: Active
[25]
  Activity: Active
[26]
  Activity: Active
[27]
  Activity: Active
[28]
  Activity: Active
[29]
  Activity: Active
[30]
  Activity: Active
[31]
  Activity: Active
[32]
  Activity: Active
[33]
  Activity: Active
[34]
  Activity: Active
[35]
  Activity: Active
[36]
  Activity: Active
[37]
  Activity: Active
[38]
  Activity: Active
[39]
  Activity: Active
[40]
  Activity: Active
[41]
  Activity: Active
